SMILES | melting point
COc1cc(COc2nn(-c3ccc(C(F)(F)F)cc3)cc2/C=C/C(=O)OCOC(=O)C(C)(C)C)ccc1OCc1nc(-c2ccccc2)oc1C [Example 297, [(2,2-dimethylpropanoyl)oxy]methyl (2E)-3-{3-({3-methoxy-4-[(5-methyl-2-phenyl-1,3-oxazol-4-yl)methoxy]benzyl}oxy)-1-[4-(trifluoromethyl)phenyl]-1H-pyrazol-4-yl}-2-propenoate] | 131 to 132 °C
COc1cc(COc2cc(C#N)n(-c3ccccc3)n2)ccc1OCc1nc(-c2ccccc2)oc1C [Example 298, 3-{[3-methoxy-4-(5-methyl-2-phenyl-1,3-oxazol-4-ylmethoxy)benzyl]oxy}-1-phenyl-1H-pyrazole-5-carbonitrile] | 120 to 121 °C
CCOC(=O)/C=C/c1cc(OCc2ccc(OCc3nc(-c4ccccc4)oc3C)c(OC)c2)nn1-c1ccccc1 [Example 299, ethyl (E)-3-(3-{[3-methoxy-4-(5-methyl-2-phenyl-1,3-oxazol-4-ylmethoxy)benzyl]oxy}-1-phenyl-1H-pyrazol5-yl)-2-propenoate] | 121 to 122 °C
COc1cc(COc2cc(/C=C/C(=O)O)n(-c3ccccc3)n2)ccc1OCc1nc(-c2ccccc2)oc1C [Example 300, (E)-3-(3-{[3-methoxy-4-(5-methyl-2-phenyl-1,3-oxazol-4-ylmethoxy)benzyl]oxy}-1-phenyl-1H-pyrazol5-yl)-2-propenoic acid] | 194 to 195 °C
COc1cc(CC(=O)Nc2nn(-c3ccccc3)cc2C=O)ccc1OCc1nc(-c2ccco2)oc1C [Example 303, N-(4-formyl-1-phenyl-1H-pyrazol-3-yl)-2-(4-{[2-(2-furyl)-5-methyl-1,3-oxazol-4-yl]methoxy}-3-methoxyphenyl)acetamide] | 190 to 191 °C
Cc1oc(-c2ccccc2)nc1COc1ccc(OCc2oc(-c3ccccc3)nc2C=O)cc1 [Example 304, 5-({4-[(5-methyl-2-phenyl-1,3-oxazol-4-yl)methoxy]phenoxy}methyl)-2-phenyl-1,3-oxazole-4-carbaldehyde] | 127 to 128 °C
COc1cc(COc2nc(-c3ccccc3)ncc2C(=O)O)ccc1OCc1nc(-c2ccco2)oc1C [Example 305, 4-[(4-{[2-(2-furyl)-5-methyl-1,3-oxazol-4-yl]methoxy}-3-methoxybenzyl)oxy]-2-phenylpyrimidine-5-carboxylic acid] | 163 to 164 °C
CCOC(=O)/C=C/c1nc(COc2ccc(COc3nn(-c4ccccc4)cc3C=O)cc2OC)c(C)o1 [Example 313, ethyl (2E)-3-{4-[(4-{[(4-formyl-1-phenyl-1H-pyrazol-3-yl)oxy]methyl}-2-methoxyphenoxy)methyl]-5-methyl-1,3-oxazol-2-yl}-2-propenoate] | 150 to 151 °C
CCOC(=O)C1CCN(c2nc(COc3ccc(COc4nn(-c5ccccc5)cc4C=O)cc3OC)c(C)s2)CC1 [Example 324, ethyl 1-(4-[(4-{[(4-formyl-1-phenyl-1H-pyrazol-3-yl)oxy]methyl}-2-methoxyphenoxy)methyl]-5-methyl-1,3-thiazol-2-yl}piperidine-4-carboxylate] | 126 to 127 °C
COc1cc(COc2nn(-c3ccccc3)cc2C=O)ccc1OCc1nc(-c2cccc(C#N)c2)oc1C [Example 332, 3-{4-[(4-{[(4-formyl-1-phenyl-1H-pyrazol-3-yl)oxy]methyl)-2-methoxyphenoxy}methyl]-5-methyl-1,3-oxazol-2-yl}benzonitrile] | 161 to 162 °C
CCOC(=O)Cc1ccc(-c2nc(COc3ccc(COc4nn(-c5ccccc5)cc4/C=C/c4cncn4CC)cc3OC)c(C)o2)cc1 [Example 340, ethyl {4-[4-({4-[({4-[(E)-2-(1-ethyl-1H-imidazol-5-yl)ethenyl]-1-phenyl-1H-pyrazol-3-yl}oxy)methyl]-2-methoxyphenoxy)methyl)-5-methyl-1,3-oxazol-2-yl]phenyl}acetate] | 134 to 135 °C

Continued, values first:

melting point | SMILES
183 to 184 °C | COC(=O)c1cccc(-c2nc(COc3ccc(COc4nn(-c5ccccc5)cc4/C=C/c4nc(N5CCOCC5)sc4C)cc3OC)c(C)o2)c1 [Example 309, methyl 3-[4-({2-methoxy-4-[({4-[(E)-2-(5-methyl-2-morpholin-4-yl-1,3-thiazol-4-yl)ethenyl]-1-phenyl-1H-pyrazol-3-yl}oxy)methyl]phenoxy}methyl)-5-methyl-1,3-oxazol-2-yl]benzoate]
215 to 217 °C (dec.) | COc1cc(COc2nn(-c3ccccc3)cc2/C=C/c2nc(N3CCOCC3)sc2C)ccc1OCc1nc(-c2cccc(C(=O)O)c2)oc1C [Example 310, 3-[4-({2-methoxy-4-[({4-[(E)-2-(5-methyl-2-morpholin-4-yl-1,3-thiazol-4-yl)ethenyl]-1-phenyl-1H-pyrazol-3-yl}oxy)methyl]phenoxy)methyl)-5-methyl-1,3-oxazol-2-yl]benzoic acid]
195 to 196 °C | COC(=O)c1cc(-c2nc(COc3ccc(COc4nn(-c5ccccc5)cc4C=O)cc3OC)c(C)o2)ccc1C [Example 319, methyl 5-{4-[(4-{[(4-formyl-1-phenyl-1H-pyrazol-3-yl)oxy]methyl}-2-methoxyphenoxy)methyl]-5-methyl-1,3-oxazol-2-yl}-2-methylbenzoate]
95 to 96 °C | CCOC(=O)/C=C/c1nc(COc2ccc(COc3nn(-c4ccccc4)cc3/C=C/c3csc(CC)n3)cc2OC)c(C)o1 [Example 322 (E form), ethyl (2E)-3-[4-({4-[({4-[(E)-2-(2-ethyl-1,3-thiazol-4-yl)ethenyl]-1-phenyl-1H-pyrazol-3-yl}oxy)methyl]-2-methoxyphenoxy}methyl)-5-methyl-1,3-oxazol-2-yl]-2-propenoate]
119 to 120 °C | CCOC(=O)/C=C/c1nc(COc2ccc(COc3nn(-c4ccccc4)cc3/C=C\c3csc(CC)n3)cc2OC)c(C)o1 [Example 322 (Z form), ethyl (2E)-3-[4-({4-[({4-[(Z)-2-(2-ethyl-1,3-thiazol-4-yl)ethenyl]-1-phenyl-1H-pyrazol-3-yl}oxy)methyl]-2-methoxyphenoxy}methyl)-5-methyl-1,3-oxazol-2-yl]-2-propenoate]
125 to 126 °C | CCc1nc(/C=C/c2cn(-c3ccccc3)nc2OCc2ccc(OCc3nc(/C=C/C(=O)O)oc3C)c(OC)c2)cs1 [Example 323, (2E)-3-[4-({4-[({4-[(E)-2-(2-ethyl-1,3-thiazol-4-yl)ethenyl]-1-phenyl-1H-pyrazol-3-yl}oxy)methyl]-2-methoxyphenoxy}methyl)-5-methyl-1,3-oxazol-2-yl]-2-propenoic acid]
156 to 157 °C | CCOC(=O)c1ccc(-c2nc(COc3ccc(COc4nn(-c5ccccc5)cc4C=O)cc3OC)c(C)o2)s1 [Example 327, ethyl 5-{4-[(4-{[(4-formyl-1-phenyl-1H-pyrazol-3-yl)oxy]methyl}-2-methoxyphenoxy)methyl]-5-methyl-1,3-oxazol-2-yl}thiophene-2-carboxylate]
145 to 146 °C | CCOC(=O)c1ccc(-c2nc(COc3ccc(COc4nn(-c5ccccc5)cc4/C=C/c4csc(CC)n4)cc3OC)c(C)o2)s1 [Example 330 (E form), ethyl 5-[4-({4-[({4-[(E)-2-(2-ethyl-1,3-thiazol-4-yl)ethenyl]-1-phenyl-1H-pyrazol-3-yl}oxy)methyl]-2-methoxyphenoxy}methyl)-5-methyl-1,3-oxazol-2-yl]thiophene-2-carboxylate]
118 to 119 °C | CCOC(=O)c1ccc(-c2nc(COc3ccc(COc4nn(-c5ccccc5)cc4/C=C\c4csc(CC)n4)cc3OC)c(C)o2)s1 [Example 330 (Z form), ethyl 5-[4-({4-[({4-[(Z)-2-(2-ethyl-1,3-thiazol-4-yl)ethenyl]-1-phenyl-1H-pyrazol-3-yl}oxy)methyl]-2-methoxyphenoxy}methyl)-5-methyl-1,3-oxazol-2-yl]thiophene-2-carboxylate]
150 to 151 °C | CCc1nc(/C=C/c2cn(-c3ccccc3)nc2OCc2ccc(OCc3nc(-c4ccc(C(=O)O)s4)oc3C)c(OC)c2)cs1 [Example 331, 5-[4-({4-[({4-[(E)-2-(2-ethyl-1,3-thiazol-4-yl)ethenyl]-1-phenyl-1H-pyrazol-3-yl}oxy)methyl]-2-methoxyphenoxy}methyl)-5-methyl-1,3-oxazol-2-yl]thiophene-2-carboxylic acid]
140 to 141 °C | CCOC(=O)Cc1ccc(-c2nc(COc3ccc(COc4nn(-c5ccccc5)cc4/C=C/c4csc(CC)n4)cc3OC)c(C)o2)cc1 [Example 338, ethyl {4-[4-({4-[({4-[(E)-2-(2-ethyl-1,3-thiazol-4-yl)ethenyl]-1-phenyl-1H-pyrazol-3-yl}oxy)methyl]-2-methoxyphenoxy}methyl)-5-methyl-1,3-oxazol-2-yl]phenyl}acetate]
136 to 137 °C | CCOC(=O)Cc1ccc(-c2nc(COc3ccc(COc4nn(-c5ccccc5)cc4/C=C\c4csc(CC)n4)cc3OC)c(C)o2)cc1 [Example 338, ethyl {4-[4-({4-[({4-[(Z)-2-(2-ethyl-1,3-thiazol-4-yl)ethenyl]-1-phenyl-1H-pyrazol-3-yl}oxy)methyl]-2-methoxyphenoxy}methyl)-5-methyl-1,3-oxazol-2-yl]phenyl}acetate]
85 to 86 °C | CCOC(=O)Cc1ccc(-c2nc(COc3ccc(COc4nn(-c5ccccc5)cc4/C=C\c4cncn4CC)cc3OC)c(C)o2)cc1 [Example 340, ethyl {4-[4-({4-[({4-[(Z)-2-(1-ethyl-1H-imidazol-5-yl)ethenyl]-1-phenyl-1H-pyrazol-3-yl}oxy)methyl]-2-methoxyphenoxy}methyl)-5-methyl-1,3-oxazol-2-yl]phenyl}acetate]
140 to 141 °C | CCOC(=O)Cc1ccc(-c2nc(COc3ccc(COc4nn(-c5ccccc5)cc4/C=C/c4cn(CC)cn4)cc3OC)c(C)o2)cc1 [Example 343, ethyl (4-{4-[(4-[({4-[(E)-2-(1-ethyl-1H-imidazol-4-yl)ethenyl]-1-phenyl-1H-pyrazol-3-yl}oxy)methyl]-2-methoxyphenoxy)methyl]-5-methyl-1,3-oxazol-2-yl}phenyl)acetate]
140 to 141 °C | CCOC(=O)Cc1ccc(-c2nc(COc3ccc(COc4nn(-c5ccccc5)cc4/C=C\c4cnn(CC)c4)cc3OC)c(C)o2)cc1 [Example 346, ethyl {4-[4-({4-[({4-[(Z)-2-(1-ethyl-1H-pyrazol-4-yl)ethenyl]-1-phenyl-1H-pyrazol-3-yl}oxy)methyl]-2-methoxyphenoxy}methyl)-5-methyl-1,3-oxazol-2-yl]phenyl}acetate]

— US7368578B2, “Five-membered heterocyclic compounds” (Takeda Pharmaceutical Company Limited, priority 2002, dated 2008)
